Experimental data reported in ChEMBL document CHEMBL1201862, “PubChem BioAssay data set” (2004).
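Briefly, cells in 96-well plates were exposed to five compound concentrations for 48 h, and endpoints were estimated by linear interpolation. GI50 is the concentration that inhibits growth by half.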 Calls of active or inactive are those of the source. Rule as the data show it: active = GI50 up to about 1.1 µM and inactive = higher.

How the values were obtained:
Assay in all cases: NCI tumour cell line growth inhibition, 48 h
OVCAR-5 = tested on: OVCAR-5
HOP-62 = tested on: HOP-62
SK-OV-3 = tested on: SK-OV-3
IGROV-1 = tested on: IGROV-1
A549 = tested on: A549
M14 = tested on: M14
SNB-75 = tested on: SNB-75
HCT-116 = tested on: HCT-116
NCI-H226 = tested on: NCI-H226
CCRF-CEM = tested on: CCRF-CEM
SNB-19 = tested on: SNB-19
CAKI-1 = tested on: CAKI-1
OVCAR-8 = tested on: OVCAR-8
OVCAR-3 = tested on: OVCAR-3
KM12 = tested on: KM12
LXFL 529 = tested on: LXFL 529
NCI-H460 = tested on: NCI-H460
NCI-H23 = tested on: NCI-H23
HCT-15 = tested on: HCT-15

## C/C(=N\NS(=O)(=O)c1ccc(C)cc1)C(CN1CCCCC1)C(c1ccccc1)c1c(O)c2ccccc2oc1=O (centres undefined)
OVCAR-5
  GI50: > 100 µM (inactive)
HOP-62
  GI50: > 100 µM (inactive)
SK-OV-3
  GI50: > 100 µM (inactive)
IGROV-1
  GI50: > 100 µM (inactive)
A549
  GI50: > 100 µM (inactive)
M14
  GI50: > 100 µM (inactive)
SNB-75
  GI50: > 100 µM (inactive)
HCT-116
  GI50: > 100 µM (inactive)
NCI-H226
  GI50: > 100 µM (inactive)
CCRF-CEM
  GI50: > 100 µM (inactive)
SNB-19
  GI50: > 100 µM (inactive)
CAKI-1
  GI50: > 100 µM (inactive)
OVCAR-8
  GI50: > 100 µM (inactive)
OVCAR-3
  GI50: > 100 µM (inactive)
KM12
  GI50: > 100 µM (inactive)
LXFL 529
  GI50: > 100 µM (inactive)
NCI-H460
  GI50: > 100 µM (inactive)
NCI-H23
  GI50: > 100 µM (inactive)
HCT-15
  GI50: > 100 µM
